pKi: −log10 of the molar value.
Assays:
5HT1 A receptors = molecular target: T1, 5HT1 A receptors (Homo sapiens, UniProt P08908); test: conventional binding techniques, 5HT1 A receptors; settings: for pKi: affinity expressed as K 0.5 (Ki) for the 5HT1 A receptors, conventional binding techniques, called K 0.5 for the (+) isomer, Ki for the (-) isomer; for selectivity (5HT1 A versus D2 receptors): ratio of D2 to 5HT1 A affinity constants
T1 sequence (P08908 1-422): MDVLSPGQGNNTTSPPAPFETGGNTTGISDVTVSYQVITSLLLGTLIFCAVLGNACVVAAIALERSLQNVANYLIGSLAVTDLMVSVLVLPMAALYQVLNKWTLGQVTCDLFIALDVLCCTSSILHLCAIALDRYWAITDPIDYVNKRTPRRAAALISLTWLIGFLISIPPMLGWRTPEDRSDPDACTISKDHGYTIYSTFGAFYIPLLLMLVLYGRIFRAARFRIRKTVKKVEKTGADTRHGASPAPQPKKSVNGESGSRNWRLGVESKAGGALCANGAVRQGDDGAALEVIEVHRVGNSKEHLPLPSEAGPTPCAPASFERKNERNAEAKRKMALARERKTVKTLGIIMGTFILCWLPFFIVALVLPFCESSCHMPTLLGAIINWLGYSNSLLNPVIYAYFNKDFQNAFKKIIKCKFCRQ
Description: (§1) If conventional binding techniques are used, the affinity of the (+) isomer of the compound of formula (II), expressed as K 0.5, is 2×10^-10for the 5HT1 A receptors and 2×10^-8 for the D2 receptors, which is equivalent to a selectivity of the order of 100.

D2 receptors = D2 receptors (Homo sapiens, UniProt P14416); test: conventional binding techniques, D2 receptors; settings: called K 0.5 for the (+) isomer, read-out: affinity expressed as K 0.5 (Ki) for the D2 receptors
Sequence of D2 receptors (P14416 whole entry): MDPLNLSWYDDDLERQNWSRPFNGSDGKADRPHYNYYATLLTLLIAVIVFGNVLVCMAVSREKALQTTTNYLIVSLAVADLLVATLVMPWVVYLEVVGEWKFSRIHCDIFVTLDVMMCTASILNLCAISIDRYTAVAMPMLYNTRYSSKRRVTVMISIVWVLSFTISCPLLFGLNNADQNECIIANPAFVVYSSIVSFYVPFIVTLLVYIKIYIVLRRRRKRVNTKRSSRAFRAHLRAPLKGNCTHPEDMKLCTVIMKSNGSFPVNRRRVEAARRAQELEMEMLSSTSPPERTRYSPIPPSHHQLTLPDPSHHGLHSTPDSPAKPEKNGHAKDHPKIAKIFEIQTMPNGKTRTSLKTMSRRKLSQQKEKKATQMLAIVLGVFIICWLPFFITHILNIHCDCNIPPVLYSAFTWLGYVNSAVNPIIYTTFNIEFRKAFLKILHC
Description: as §1

Compound	affinity for the 5HT1 A receptors relative to that of the (-) isomer (5HT1 A receptors; (+) isomer compared with (-) isomer)	specificity relative to the (-) isomer (5HT1 A receptors; (+) isomer compared with (-) isomer, 5HT1 A versus D2)	pKi (5HT1 A receptors)	selectivity (5HT1 A versus D2 receptors) (5HT1 A receptors)	pKi (D2 receptors)
CCCN(CCCCN1C(=O)CC2(CCCC2)CC1=O)C1COc2cccc(OC)c2C1 (single isomer, unassigned; (+)) [(+) isomer of the compound of formula (II)]	about 10 times	20 times	9.70	~100	7.70
CCCN(CCCCN1C(=O)CC2(CCCC2)CC1=O)C1COc2cccc(OC)c2C1 (single isomer, unassigned; (-)) [(-) isomer]	–	–	8.70	~5	8.00

Source: patent US5322944A, “Process for the synthesis of enantiomers of 3-aminochroman compounds” (Adir et Compagnie, priority 1991, dated 1994)
